# Assay results from PMC10515483, “Structure–Reactivity Studies of 2-Sulfonylpyrimidines Allow Selective Protein Arylation” (Bioconjugate Chemistry, 2023).
# “Also recorded” adds a separate entry of the source.
# How the values were obtained:
# [1] = GSH arylation rate constants (NMR; UV-vis for fast warheads); format: physicochemical; conditions: for k: Table S8, rate constants obtained at pH = 7; for k/kref / ΔΔG≠1exp: relative to 4q; for ΔΔG≠1exp: via -RTln(k/kref)
# How it was run: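 Second-order rate constants k for GSH arylation derived from pseudo-first-order k′ (warhead:GSH 1:10), by normalized NMR integration of the disappearing warhead signal over 6 h; TMSP internal standard. KPi buffer with 5% d6-DMSO, pH 7.0 and 6.5, 20 °C; UV–vis used for fast warheads. Mean of ≥2 independent runs.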
# [2] = molecular target: T1, β-catenin ARD (Homo sapiens, UniProt P35222); assay: Differential scanning fluorimetry (DSF); format: binding; conditions: 100 μM compound; 8 µM β-cat; read-out: Protein thermal stability ΔTm
# T1 construct: vector pLipK-ARD (residues 150 – 662) was used; 6xHis-Lip (6xHis, lipoyl domain); made in house; host or cells: E. coli BL21(DE3) pRARE2
# T1 sequence (P35222 150-662): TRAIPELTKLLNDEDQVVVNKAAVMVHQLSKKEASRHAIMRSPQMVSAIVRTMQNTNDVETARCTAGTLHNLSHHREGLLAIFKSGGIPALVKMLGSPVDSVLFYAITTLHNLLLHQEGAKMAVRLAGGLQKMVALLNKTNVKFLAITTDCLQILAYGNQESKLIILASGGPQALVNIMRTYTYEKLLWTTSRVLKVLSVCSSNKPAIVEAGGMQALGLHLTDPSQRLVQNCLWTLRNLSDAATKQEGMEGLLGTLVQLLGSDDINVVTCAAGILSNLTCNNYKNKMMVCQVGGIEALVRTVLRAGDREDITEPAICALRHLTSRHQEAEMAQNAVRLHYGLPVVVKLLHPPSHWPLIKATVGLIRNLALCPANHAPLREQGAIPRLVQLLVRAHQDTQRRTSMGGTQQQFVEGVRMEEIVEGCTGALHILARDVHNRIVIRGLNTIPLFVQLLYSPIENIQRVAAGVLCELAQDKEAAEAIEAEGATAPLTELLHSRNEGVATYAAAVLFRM
# Description: We also probed the general effect of 2-SPs on protein stability by using differential scanning fluorimetry (DSF). […] Mutants of the 25 kDa DNA-binding domain of the tumor suppressor p53 are notorious for their reduced thermal stability and denaturation/aggregation propensity.[37] The 56 kDa armadillo domain (ARD) of β-catenin mediates canonical Wnt signaling and plays a central role in embryogenesis and tissue homeostasis.[38] FGE (37 kDa) is the only known activator of human sulfatases, and its stability is susceptible to modification of its cysteines.[39] […]
# Human β-catenin armadillo domain. β-catenin sequence was amplified by PCR (KOD DNA polymerase, Merck Millipore) from plasmid templates and cloned into bacterial expression vectors by restriction - free cloning. All plasmids were verified by sequencing. For protein pro duction, bacterial expression vector pLipK-ARD (residues 150 – 662) was used. 6xHis-Lip-tagged recombinant proteins were purified from BL21(DE3) pRARE2 E. coli bacterial strains. Bacteria were grown in LB media supplemented with appropriate antibiotic to OD600 0.6, then dropped to a lower temperature (16 – 24 °C) and induced at OD600 0.8 by addition of 0.4 mM isopropyl β -D-1-thiogalactopyranoside (IPTG). Proteins were expressed overnight and bacteria were subsequently harvested by centrifugation, cell pelle ts shock-frozen in liquid nitrogen and stored at -80°C until use. Cell pellets were re -suspended in lysis buffer (25 mM Tris -HCl pH 8, 200 mM NaCl, 20 mM imidazole, 10 μg/mL DNAse, EDTA -free protease inhibitor cocktail) and lysed with an Emulsiflex C-3 (Avestin). Lysates were cleared by ultracentrifugation (140,000x rcf, 30 minutes, 4°C) and mixed with Ni-NTA agarose. Beads were washed multiple times with lysis buffer, and 6xHisLip - tagged protein was eluted with lysis buffer supplemented with 500 mM imidazo le. The protein was further purified by SEC on a HiPrep26/60 G200 (GE Healthcare) into the final buffer of 200 mM NaCl, 25 mM Tris pH 7.4, 0.06% NaN3, 1 mM DTT, and protein purity was assessed by SDS -PAGE. Pure protein fractions were concentrated using a 1 0 kDa MWCO Vivaspin 20 concentrator (Sartorius) to 17 – 28 mg/mL, then shock frozen as droplets in liquid nitrogen and stored at -80°C until use. […]
# [3] = Solubility in KPi buffer by NMR with TMSP internal standard; conditions: 50 mM KPi aqueous buffer, pH 7, aqueous with cosolvent or surfactant or cyclodextrin, kinetic from dmso stock
# Description: Stability and solubility assays
# transferred to the NMR instrument for acquisition. 1H spectra (16 scans) were recorded every 10 minutes under water suppression conditions. Following acquisition, spectra were analysed using
# TopSpin. Normalised integrations of the pyrimidine aromatic 1H signals in the starting material and
# product were plotted as a function of time (s), using the TMSP peak as standard for integral
# calibration/normalisation and monitoring of compound solubility, allowing extraction of pseudo first
# order reaction rate constants (k’). Second order rate constants (k) were back calculated from the ratio
# of the pseudo first counterparts and the concentration of thiol in solution.
# was confirmed by formation of a single S-arylated product (characteristic 2-alkylthioether signals),
# concomitant with formation of the sulfinic acid by -product (leaving group). Hydrolytic stability
# assessment was performed at pH 7.0 and pH 8.2 in a similar manner, in the absence of thiol.
# Chemoselectivity. Similarly, but replacing GSH by other amino acids , reference 2-
# methylsulfonylpyrimidine 4q in 50 mM KPi (pH 8.2) was incubated with 10 equivalents of either Boc-
# Lys-OH, L-ser-OMe, N-Ac-Tyr-OH or Proline were used.
# [4] = pH 6.5, by NMR, KPi buffer, 5% DMSO-d6
# [5] = pH 7.0, by NMR, KPi buffer, 5% DMSO-d6
# [6] = pH 7.0, ratio to rate constant of 4q, acceleration (+) or deceleration (-)
# [7] = pH 6.5, measured by UV titrations
# [8] = pH 7.0, measured by UV titrations
# [9] = pH 7.0, ratio to 4q, from value measured by UV titrations (footnote a)
SMILES,k [1],"rate constant (k) for the reaction with GSH [1, 4]","rate constant (k) for the reaction with GSH [1, 5]","k change (vs ref) [1, 6]",k/kref [1],ΔΔG≠1exp [1],ΔTm at 100 µM [2],solubility [3],"rate constant (k) for the reaction with GSH [1, 7]","rate constant (k) for the reaction with GSH [1, 8]","k change (vs ref) [1, 9]","second order rate constant k with GSH ([1]; pH 7.0, KPi buffer)",times faster at pH 7.0 vs 6.5 ([1]; GSH),times slower with GSH than with NACME ([1]; pH 7.0)
Cc1cc(C)nc(S(C)(=O)=O)n1 [4a],0.0010 M⁻¹ s⁻¹,0.00038 ± 8e-05 M⁻¹ s⁻¹,0.001 M⁻¹ s⁻¹,-25 fold,0.040,1.91 kcal/mol,-0.1 ± 0.1 °C,≥ 2000 µM,,,,,,
COc1ccnc(S(C)(=O)=O)n1 [4b],0.0045 M⁻¹ s⁻¹,0.0013 ± 0.0008 M⁻¹ s⁻¹,0.0045 ± 0.0005 M⁻¹ s⁻¹,-6 fold,0.18,1.03 kcal/mol,-0.1 ± 0.1 °C,≥ 2000 µM,,,,,,
Cc1ccnc(S(C)(=O)=O)n1 [4c],0.0043 M⁻¹ s⁻¹,0.0015 ± 0.0005 M⁻¹ s⁻¹,0.0043 ± 0.0008 M⁻¹ s⁻¹,-6 fold,0.17,1.05 kcal/mol,-0.1 ± 0.1 °C,≥ 2000 µM,,,,,,
CS(=O)(=O)c1nccc(C(=O)O)n1 [4d],0.0050 M⁻¹ s⁻¹,0.0015 M⁻¹ s⁻¹,0.005 M⁻¹ s⁻¹,-5 fold,0.20,0.956 kcal/mol,-0.1 ± 0.1 °C,≥ 2000 µM,,,,,,
CS(=O)(=O)c1nccc(-c2ccccc2)n1 [4e],,0.002 ± 0.0005 M⁻¹ s⁻¹,0.005 M⁻¹ s⁻¹,-5 fold,,,-0.1 ± 0.1 °C,< 2000 µM,,,,,,
"COc1cc(OC)nc(S(C)(=O)=O)n1 [4f, 4,6-dimethoxy-2-methylsulfonylpyrimidine]",0.010 M⁻¹ s⁻¹,0.003 ± 0.0005 M⁻¹ s⁻¹,0.01 M⁻¹ s⁻¹,-3 fold,0.40,0.55 kcal/mol,-0.1 ± 0.1 °C,≥ 2000 µM,,,,,,
CS(=O)(=O)c1nccc(N)n1 [4g],0.023 M⁻¹ s⁻¹,0.032 ± 0.006 M⁻¹ s⁻¹,0.023 ± 0.003 M⁻¹ s⁻¹,≈,0.92,0.0502 kcal/mol,-0.1 ± 0.1 °C,≥ 2000 µM,,,,,,
CS(=O)(=O)c1ncc(Br)c(C(=O)O)n1 [4i],,0.075 ± 0.035 M⁻¹ s⁻¹,0.3 ± 0.013 M⁻¹ s⁻¹,+12 fold,,,-0.1 ± 0.1 °C,,0.15 ± 0.09 M⁻¹ s⁻¹,0.64 ± 0.009 M⁻¹ s⁻¹,+26 fold,,,
CS(=O)(=O)c1nccc(C(N)=O)n1 [4j],,0.095 ± 0.015 M⁻¹ s⁻¹,0.3 ± 0.0025 M⁻¹ s⁻¹,+12 fold,,,-0.3 ± 0.3 °C,,,,,,,
COC(=O)c1ccnc(S(C)(=O)=O)n1 [4k],2.8 M⁻¹ s⁻¹,0.26 ± 0.045 M⁻¹ s⁻¹,,,112,-2.87 kcal/mol,-0.1 ± 0.1 °C,≥ 2000 µM,0.37 ± 0.063 M⁻¹ s⁻¹,2.8 ± 1.1 M⁻¹ s⁻¹,+112 fold,,,
CS(=O)(=O)c1nccc(C(F)(F)F)n1 [4l],21 M⁻¹ s⁻¹,,,,840,-4.06 kcal/mol,-1.7 ± 0.4 °C,≥ 2000 µM,4.9 ± 0.48 M⁻¹ s⁻¹,21 ± 0.6 M⁻¹ s⁻¹,+840 fold,≈ 21 M^–1 s^–1,,
CS(=O)(=O)c1ncc(-c2ccccc2)cn1 [4p],,0.01 ± 0.005 M⁻¹ s⁻¹,0.012 ± 0.0078 M⁻¹ s⁻¹,-2 fold,,,-0.1 ± 0.1 °C,< 2000 µM,,,,,,
"CS(=O)(=O)c1ncccn1 [4q, 2-methylsulfonylpyrimidine]",0.0250 M⁻¹ s⁻¹,0.004 ± 0.0016 M⁻¹ s⁻¹,0.025 ± 0.014 M⁻¹ s⁻¹,,1,0 kcal/mol,-0.1 ± 0.1 °C,≥ 2000 µM,,,,≈ 1.6 × 10^–2 M^–1 s^–1; also recorded: ≈ 1.2 × 10^–2 M^–1 s^–1,approximately 5 times,approximately 3 times
CS(=O)(=O)c1ncc(Br)cn1 [4t],0.29 M⁻¹ s⁻¹,0.056 ± 0.034 M⁻¹ s⁻¹,0.29 ± 0.25 M⁻¹ s⁻¹,+12 fold,12,-1.46 kcal/mol,-0.7 ± 0.1 °C,≥ 2000 µM,,,,,,
CS(=O)(=O)c1ncc(I)cn1 [4u],,0.025 ± 0.01 M⁻¹ s⁻¹,0.66 ± 0.01 M⁻¹ s⁻¹,+26 fold,,,-0.1 ± 0.1 °C,≥ 2000 µM,,,,,,
CS(=O)(=O)c1ncc(C(=O)O)cn1 [4v],30 M⁻¹ s⁻¹,,,"+1,200 fold",1200,-4.3 kcal/mol,-1.3 ± 0.1 °C,≥ 2000 µM,6.7 ± 3.1 M⁻¹ s⁻¹,30 ± 3.2 M⁻¹ s⁻¹,,,,
CS(=O)(=O)c1ncc(C(F)(F)F)cn1 [4x],1900 M⁻¹ s⁻¹,,,"+76,000 fold",76000,-6.69 kcal/mol,-3.1 ± 0.6 °C,≥ 2000 µM,,,,,,
